These compounds were tested on Akt phosphorylation in Molt-4 (PTEN-/SHIP1+) cells (assay: Akt phosphorylation in lymphocytes (Western blot, IGF-1 stimulated)). Conditions: 30 μM; Molt-4 (SHIP1+) cells, IGF-1 100 ng/mL.
Assay type: cell-based
Parameters: key: +: inhibits Akt phosphorylation at 30 μM; −: no effect on Akt phosphorylation at 30 μM
Method: Molt-4 (PTEN-/SHIP1+) cells are starved in serum free RPMI for overnight. In a 15 mL conical tube, 2-3 million serum starved cells (1 million cells per mL) are treated with various concentrations of test compound ([…]) for 30 min at 37° C. followed by stimulation with 100 ng/mL of IGF-1 for 1 hour at 37° C. After stimulation, cells are washed once with ice-cold DPBS and lysed with Lysis Buffer (20 mM Tris-HCl, pH 7.5, 140 mM NaCl, 1% NP-40, Complete Mini Protease Inhibitor Cocktail, 10 mM NaF, 1 mM Na3VO4, 1 mM β-glycerolphosphate) on ice for 30 min with vortexing every 10 min. Samples are then centrifuged at 13,000 rpm for 20 min, and supernatants are collected as total cell lysate samples. Protein concentration is determined using bicinchonic acid assay, and about 15 μg of total protein from each sample is loaded and separated on a 4-12% Tris-Glycine gel. After SDS-PAGE, proteins are transferred from the gel to a nitrocellulose membrane. The membrane is blocked in 5% BSA in PBS containing 0.1% Tween-20 (PBS-T) for 1 hour at room temperature before probing with primary antibodies for overnight at 4° C. The following antibodies are used: mouse anti-SHIP1 (1:500 dilution; Santa Cruz, Calif., USA), rabbit anti-phospho-Akt (Ser473) (1:1000 dilution; Cell Signaling Technologies, MA, USA), rabbit anti-Akt (1:1000; Cell Signaling Technologies, MA, USA), and rabbit anti-actin (1:2000; Cell Signaling Technologies, MA, USA). The membrane is then incubated with goat anti-rabbit or anti-mouse secondary antibodies (1:3000) for 1 hour at room temperature. Target proteins on the membrane are detected with ECL solution and exposed on a film.

Row | Structure (SMILES) | Molt-4 (SHIP+): inhibition of Akt phosphorylation
1 | CN(C)C[C@H]1C2=C(CC[C@@H]1[C@@]1(C)CC[C@H](O)C[C@@H]1CO)C(C)(C)CC2 [Cpd. No. 3, (1S,3S,4R)-4-((4R,5S)-4-((dimethylamino)methyl)-1,1-dimethyl-2,3,4,5,6,7-hexahydro-1H-inden-5-yl)-3-(hydroxymethyl)-4-methylcyclohexanol] | +
2 | C=C1CC[C@H]2[C@H](O)[C@@H]([C@@]3(C)CC[C@H](O)C[C@@H]3CCN3CCCC3)CC[C@]12C [Cpd. No. 11, (3aR,4R,5R,7aS)-5-((1S,2S,4S)-4-hydroxy-1-methyl-2-(2-(pyrrolidin-1-yl)ethyl)cyclohexyl)-7a-methyl-1-methyleneoctahydro-1H-inden-4-ol] | +
3 | C=C1CC[C@H]2[C@H](CNC(=O)C(C)(C)C)[C@@H]([C@@]3(C)CC[C@H](O)C[C@@H]3CO)CC[C@]12C [Cpd. No. 20, N-(((3aS,4R,5S,7aS)-5-((1R,2S,4S)-4-hydroxy-2-(hydroxymethyl)-1-methylcyclohexyl)-7a-methyl-1-methyleneoctahydro-1H-inden-4-yl)methyl)pivalamide] | +
4 | C=C1CC[C@H]2[C@H](CNC(=O)C(C)C)[C@@H]([C@@]3(C)CC[C@H](O)C[C@@H]3CO)CC[C@]12C [Cpd. No. 21, N-(((3aS,4R,5S,7aS)-5-((1R,2S,4S)-4-hydroxy-2-(hydroxymethyl)-1-methylcyclohexyl)-7a-methyl-1-methyleneoctahydro-1H-inden-4-yl)methyl)isobutyramide] | +
5 | C=C1CC[C@H]2[C@H](CNC(=O)CC)[C@@H]([C@@]3(C)CC[C@H](O)C[C@@H]3CO)CC[C@]12C [Cpd. No. 22, N-(((3aS,4R,5S,7aS)-5-((1R,2S,4S)-4-hydroxy-2-(hydroxymethyl)-1-methylcyclohexyl)-7a-methyl-1-methyleneoctahydro-1H-inden-4-yl)methyl)propionamide] | +
6 | C=C1CC[C@H]2[C@H](CNC(=O)CCC)[C@@H]([C@@]3(C)CC[C@H](O)C[C@@H]3CO)CC[C@]12C [Cpd. No. 23, N-(((3aS,4R,5S,7aS)-5-((1R,2S,4S)-4-hydroxy-2-(hydroxymethyl)-1-methylcyclohexyl)-7a-methyl-1-methyleneoctahydro-1H-inden-4-yl)methyl)butyramide] | +
7 | C=C1CC[C@H]2[C@H](CNC(=O)CCCC)[C@@H]([C@@]3(C)CC[C@H](O)C[C@@H]3CO)CC[C@]12C [Cpd. No. 24, N-(((3aS,4R,5S,7aS)-5-((1R,2S,4S)-4-hydroxy-2-(hydroxymethyl)-1-methylcyclohexyl)-7a-methyl-1-methyleneoctahydro-1H-inden-4-yl)methyl)pentanamide] | +
8 | C=C1CC[C@H]2[C@H](CCN)[C@@H]([C@@]3(C)CC[C@H](O)C[C@@H]3CO)CC[C@]12C [Cpd. No. 29, (1S,3S,4R)-4-((3aS,4R,5S,7aS)-4-(2-aminoethyl)-7a-methyl-1-methyleneoctahydro-1H-inden-5-yl)-3-(hydroxymethyl)-4-methylcyclohexanol] | +
9 | C=C1CC[C@H]2[C@H](CNCc3cc(OC)cc(OC)c3)[C@@H]([C@@]3(C)CC[C@H](O)C[C@@H]3CO)CC[C@]12C [Cpd. No. 32, (1S,3S,4R)-4-((3aS,4R,5S,7aS)-4-((3,5-dimethoxybenzylamino)methyl)-7a-methyl-1-methyleneoctahydro-1H-inden-5-yl)-3-(hydroxymethyl)-4-methylcyclohexanol] | +
10 | C=C1CC[C@H]2[C@H](CNCc3ccc4c(c3)OCO4)[C@@H]([C@@]3(C)CC[C@H](O)C[C@@H]3CO)CC[C@]12C [Cpd. No. 34, (1S,3S,4R)-4-((3aS,4R,5S,7aS)-4-((benzo[d][1,3]dioxol-5-ylmethylamino)methyl)-7a-methyl-1-methyleneoctahydro-1H-inden-5-yl)-3-(hydroxymethyl)-4-methylcyclohexanol] | +
11 | C=C1CC[C@H]2[C@H](O)[C@@H]([C@@]3(C)CC[C@H](O)C[C@@H]3CCN3CCN(C)CC3)CC[C@]12C [Cpd. No. 48, (3aR,4R,5R,7aS)-5-((1S,2S,4S)-4-hydroxy-1-methyl-2-(2-(4-methylpiperazin-1-yl)ethyl)cyclohexyl)-7a-methyl-1-methyleneoctahydro-1H-inden-4-ol] | +
12 | C=C1CC[C@H]2[C@H](O)[C@@H]([C@@]3(C)CC[C@H](O)C[C@@H]3CCn3ccnc3)CC[C@]12C [Cpd. No. 50, (3aR,4R,5R,7aS)-5-((1S,2S,4S)-2-(2-(1H-imidazol-1-yl)ethyl)-4-hydroxy-1-methylcyclohexyl)-7a-methyl-1-methyleneoctahydro-1H-inden-4-ol] | +
13 | C=C1CC[C@H]2[C@H](O)[C@@H]([C@@]3(C)CC[C@H](O)C[C@@H]3CCOc3ccccn3)CC[C@]12C [Cpd. No. 57, (3aR,4R,5R,7aS)-5-((1S,2S,4S)-4-hydroxy-1-methyl-2-(2-(pyridin-2-yloxy)ethyl)cyclohexyl)-7a-methyl-1-methyleneoctahydro-1H-inden-4-ol] | +
14 | C=C1CC[C@H]2[C@H](CNC(=O)c3ccco3)[C@@H]([C@@]3(C)CC[C@H](O)C[C@@H]3CO)CC[C@]12C [Cpd. No. 81, N-(((3aS,4R,5S,7aS)-5-((1R,2S,4S)-4-hydroxy-2-(hydroxymethyl)-1-methylcyclohexyl)-7a-methyl-1-methyleneoctahydro-1H-inden-4-yl)methyl)furan-2-carboxamide] | +
15 | C=C1CC[C@H]2[C@H](CNC(=O)C3CC3)[C@@H]([C@@]3(C)CC[C@H](O)C[C@@H]3CO)CC[C@]12C [Cpd. No. 82, N-(((3aS,4R,5S,7aS)-5-((1R,2S,4S)-4-hydroxy-2-(hydroxymethyl)-1-methylcyclohexyl)-7a-methyl-1-methyleneoctahydro-1H-inden-4-yl)methyl)cyclopropanecarboxamide] | +
16 | C=C1CC[C@H]2[C@H](CNC(=O)C3CCCCC3)[C@@H]([C@@]3(C)CC[C@H](O)C[C@@H]3CO)CC[C@]12C [Cpd. No. 83, N-(((3aS,4R,5S,7aS)-5-((1R,2S,4S)-4-hydroxy-2-(hydroxymethyl)-1-methylcyclohexyl)-7a-methyl-1-methyleneoctahydro-1H-inden-4-yl)methyl)cyclohexanecarboxamide] | +
17 | C=C1CC[C@H]2[C@H](CNC(=O)NCC)[C@@H]([C@@]3(C)CC[C@H](O)C[C@@H]3CO)CC[C@]12C [Cpd. No. 84, 1-ethyl-3-(((3aS,4R,5S,7aS)-5-((1R,2S,4S)-4-hydroxy-2-(hydroxymethyl)-1-methylcyclohexyl)-7a-methyl-1-methyleneoctahydro-1H-inden-4-yl)methyl)urea] | +
18 | C=C1CC[C@H]2[C@H](CNC(=S)NC)[C@@H]([C@@]3(C)CC[C@H](O)C[C@@H]3CO)CC[C@]12C [Cpd. No. 85, 1-(((3aS,4R,5S,7aS)-5-((1R,2S,4S)-4-hydroxy-2-(hydroxymethyl)-1-methylcyclohexyl)-7a-methyl-1-methyleneoctahydro-1H-inden-4-yl)methyl)-3-methylthiourea] | +
19 | C=C1CC[C@H]2[C@H](CNC(=O)C(F)(F)F)[C@@H]([C@@]3(C)CC[C@H](O)C[C@@H]3CO)CC[C@]12C [Cpd. No. 86, 2,2,2-trifluoro-N-(((3aS,4R,5S,7aS)-5-((1R,2S,4S)-4-hydroxy-2-(hydroxymethyl)-1-methylcyclohexyl)-7a-methyl-1-methyleneoctahydro-1H-inden-4-yl)methyl)acetamide] | +
20 | C=C1CC[C@H]2[C@H](CC#N)[C@@H]([C@@]3(C)CC[C@H](O)C[C@@H]3CO)CC[C@]12C [Cpd. No. 87, 2-((3aS,4R,5S,7aS)-5-((1R,2S,4S)-4-hydroxy-2-(hydroxymethyl)-1-methylcyclohexyl)-7a-methyl-1-methyleneoctahydro-1H-inden-4-yl)acetonitrile] | +
21 | C=C1CC[C@H]2[C@H](CNOC)[C@@H]([C@@]3(C)CC[C@H](O)C[C@@H]3CO)CC[C@]12C [Cpd. No. 88, (1S,3S,4R)-3-(hydroxymethyl)-4-((3aS,4R,5S,7aS)-4-((methoxyamino)methyl)-7a-methyl-1-methyleneoctahydro-1H-inden-5-yl)-4-methylcyclohexanol] | +

Source: US10100056B2, “SHIP1 modulators and methods related thereto” (Aquinox Pharmaceuticals (Canada) Inc., priority 2013, dated 2018)
